The text below walks through data of a melting point compilation (Tetko et al.; mined from patent text by program, amines drawn as free bases though some values may be those of a salt).

Where only a bound is given, the exact number is not on record here.

On to `Cc1c(C)c2c(c(C)c1O)CCC(C)(CCc1ccccc1)O2` (configuration not stated), for which the melting point (in general, the temperature of the solid-liquid transition) lay within 96 to 98 °C.

The compound `CC(C)c1nc(CO)n(CC2=CCC(=O)N=C2)c1Sc1cc(Cl)cc(Cl)c1` showed a melting point of 220 °C.

Regarding `COc1cc(Cl)c2c(=O)c(C(C)C)coc2c1`, the melting point was in the range of 177 to 179 °C.

On to `CN1CC(=O)NC(=O)N1c1cc(Cl)c(Oc2ccc(S(C)(=O)=O)cc2)c(Cl)c1`, for which the melting point turned out to be 223 °C.

`FC(F)(F)C1(c2cc(Cl)cc(Cl)c2)CCN(c2ccc(-n3cnnn3)c(Br)c2)C1` (configuration not stated) had a melting point of 193 to 194 °C.

Regarding `COC(=O)CCCC#Cc1cc(Cl)ccc1NS(=O)(=O)c1ccc2c(c1)C(C)(C)CCC2(C)C`, the melting point is 113 to 115 °C.

With `C=C(CC(=O)Nc1cc(Cl)cc(Cl)c1)C(=O)OCCCC`, the melting point was 69.5 °C.

`Clc1nc2ccccc2nc1Nc1cccc2ccccc12` gave a melting point of 157 to 159 °C.

Consider `CC(C)Cc1cc2nnc(-c3ccccc3F)n2nc1OCc1ncnn1C`, for which the melting point fell in the range of 134 to 136 °C.

For the compound `CCOC(=O)CC(=O)c1ccc(C)nn1`, the melting point was 79 °C.

On to `CCOC(=O)c1cnc(SC)nc1NC`, for which the melting point lay in the range of 91 to 93 °C.

The compound `CC(=NOCCOc1ccc(CC2OC(=O)NC2=O)cc1)c1ccc(-c2ccccc2)cc1` (configuration not stated) registered a melting point of 177 to 179 °C.

As for `CN1CC(CN2C(=O)C3(COc4cc5c(cc43)OCO5)c3ccccc32)OC1=O` (configuration not stated), the melting point was 98 to 102 °C.

Compound `Cc1cc(C)c(Nc2nc(C)ccc2S(=O)(=O)c2ccc(OCc3ccccc3[N+](=O)[O-])cc2)c(C)c1` gave a melting point of 153 to 155 °C.

The compound `O=C(c1cc(-c2ccc(F)cc2)c(-c2ccc(F)cc2)[nH]1)C(F)(F)F` came in with a melting point of 211 to 212 °C.

For `CCOC(=O)CSc1cccc(-c2nc(=O)c3ccccc3s2)n1`, the melting point lay within 124 to 125 °C.

`CCN(CC)C(=S)SC(C[N+](=O)[O-])c1ccccc1` (configuration not stated) returned a melting point of 81 to 82.5 °C.

For `COC(=O)c1ccc(-c2nc(-c3cccc(C(F)(F)F)c3)co2)cc1`, the melting point was 134 to 135 °C.

The compound `CCOC(=O)CNC(=S)NC(=Nc1ccccc1)c1ccccc1` yielded a melting point of 151 to 152 °C.

Compound `CN(C1CCN(Cc2csnn2)CC1)S(=O)(=O)c1ccc(Nc2nccc(Nc3ccc(F)c(F)c3)n2)cc1` displayed a melting point of 172 to 173 °C.

`CCOC(=O)c1cc2cc(NC(C)=O)ccc2n1C(=O)OC(C)(C)C`: the melting point lay in the range of 122 to 123 °C.

In the case of `CCCOc1ccccc1C1=NC(=O)C2=NC=NC2=N1`, the melting point lay in the range of 254 to 259 °C.

`CC(C)(C)C(NC(=O)c1ccc(Cl)cc1)NC(=NC#N)Nc1ccccc1F` (configuration not stated) showed a melting point of 208 to 209 °C.

In the case of `COc1ccc(C(=O)C#CCO)cc1`, the melting point is 84 to 85 °C.

In the case of `N#Cc1csc2ccccc12`, the melting point fell in the range of 67 to 69 °C.

As to `O=C1CCCc2c(cccc2OCC2CO2)N1` (configuration not stated), the melting point lay within 121 to 123 °C.

The compound `c1ccn2c(=Nc3nccs3)snc2c1` yielded a melting point of 169 to 171 °C.

As to `CCC1(O)CC(=O)OCc2c1cc1n(c2=O)Cc2c-1nc1ccccc1c2C1CCCCC1` (configuration not stated), the melting point is > 250 °C.

`N=C(Nc1ccc2[nH]cc(-c3ccncc3)c2c1)c1cccs1` returned a melting point of 183 to 185 °C.

`CC(C)(C)c1cc(NC(=O)C2CCCCC2C(=O)O)cc(C(C)(C)C)c1O` (configuration not stated) displayed a melting point of 247 to 252 °C.

Compound `CC(C)Oc1ccc(CCCOc2nn(Cc3ccccc3)cc2CC(=O)O)c(OCc2ccc(Cl)cc2Cl)c1` had a melting point of 103 to 104 °C.

`CCOC(=O)c1cn2c3ccc(Br)cc3c3cc(OC)cc(c1=O)c32` gave a melting point of 95.6 to 97.6 °C.

Turning to `CCOC(=O)c1nc(NC(C)=O)sc1Cc1ccc(SC)cc1`, the melting point was 205 to 206 °C.

In the case of `Nc1ncnc2c1ncn2C1CCC(O)C1O` (configuration not stated), the melting point was in the range of 201 to 202 °C.

Regarding `CN1CCC(c2c[nH]c3ccc(NC(=O)c4cccnc4)nc23)CC1`, the melting point fell in the range of 136 to 137 °C.

Regarding `CC12CC(=O)C3C(C=CC4=CC(=O)CCC43C)C1CCC2=O` (configuration not stated), the melting point came out at 237 °C.

In the case of `CCNC(=O)c1c([Si](C)(C)C)csc1Cl`, the melting point lay within 46 to 48 °C.

As to `COc1ccc(S(=O)(=O)N2CCc3cccc(-c4ccc(Cl)cc4)c32)cc1`, the melting point lay in the range of 177 to 178 °C.

`COc1cc2c(cc1Nc1ncc(Cl)c(Nc3ccccc3S(C)(=O)=O)n1)CCN(CC(=O)N(C)C)CC2`: the melting point lay in the range of 77 to 99 °C.

As for `CCOC(=O)c1c[nH]c(=S)n1C1CCc2c(F)cc(F)cc2C1` (configuration not stated), the melting point is 159 to 161 °C.

Take `O=C(O)c1ccc(NC(=O)c2sc3c([N+](=O)[O-])c(O)c(O)cc3c2Cl)cc1`: the melting point lay in the range of 298 to 300 °C.

In turn, `CCCCOC1CCCC(C2NC(=O)C2C(C)O[Si](C)(C)C(C)(C)C)C1O` (configuration not stated) showed a melting point of 105 to 106 °C.

Regarding `CC1SC(C(=O)Nc2ccc(CN3CCOC3=O)cc2)Cc2cc3c(cc2C1=O)OCO3` (configuration not stated), the melting point was in the range of 231 to 233 °C.

In turn, `O=C(O)c1cn(C2CC2)c2c(F)c(N3CCC(N=Cc4ccc(Cl)cc4)C3)c(F)cc2c1=O` (configuration not stated) had a melting point of 232 to 237 °C.

`CCCCC1N=c2ccc(OCC)c(C(=O)OCC)c2=NC1=O` (configuration not stated) displayed a melting point of 168 to 169 °C.

Compound `Cc1c(C(=O)Nc2ccc(N3CCC(N4CCCCC4)CC3)c(C#N)c2)cnn1-c1ccc(F)cc1` registered a melting point of 237 to 238 °C.

Take `C=CCn1c(-c2cccnc2)nn(CCCCN2CCN(c3ccccc3OC)CC2)c1=O`: the melting point was 71 to 75 °C.

For the compound `c1cc(-c2noc(C3CC3)n2)ncn1`, the melting point was 89 to 94 °C.

Consider `COC(=O)c1cc(Cl)c2nc(C)cn2c1N`, for which the melting point is 188 to 191 °C.

`COCNC(=O)SC(C(=O)O)c1ccccc1` (configuration not stated) displayed a melting point of 111 to 112 °C.

The compound `O=C(O)CCc1cn(Cc2ccc(OCc3csc(-c4cccnc4)n3)cc2)cc1-c1ccccc1` had a melting point of 118 to 119 °C.

Consider `COc1cc2cc(/C=C/c3ccccc3)[nH]c2cc1OCc1ccccc1`, for which the melting point lay in the range of 140 to 145 °C.

`Oc1c(CN2CCCC2)cc(Nc2ccnc3ccccc23)cc1CN1CCCC1` displayed a melting point of 67 °C.

With `O=C(CCl)Nc1ccc(-c2nc3ccccc3s2)cc1I`, the melting point fell in the range of 192 to 194 °C.

In the case of `COC(=O)c1ccc(-c2cccc(OCc3ccc(COC(=O)c4ccccc4)c(COC(=O)c4ccccc4)c3)c2)cc1`, the melting point lay within 71 to 72 °C.

With `COC(=O)c1c(Cl)cc(C(F)(F)F)nc1C(F)(F)F`, the melting point was in the range of 48 to 49 °C.

Compound `COc1ccc(C=C(Cl)Cl)c(C(=O)O)c1` came in with a melting point of 164 to 166 °C.

`O=C(NCCc1ccccc1)Nc1ccc(CN2C(=O)[C@H]3CCC[C@H]3N(C(=O)CN3C(=O)c4ccccc4C3=O)c3ccccc32)cc1` (relative stereo) returned a melting point of 145 to 147 °C.

Turning to `N#Cc1ccc2c(c1)CCc1nn(-c3ccccn3)c(O)c1-2`, the melting point lay in the range of 232 to 233 °C.

Compound `C=CCC(C)(C)C(O)C(c1cccc(OC)c1)n1ccnc1` (configuration not stated) showed a melting point of 83 °C.

`N=C(NO)c1cccc2nc(N[C@@H]3CCc4ccccc43)ccc12` yielded a melting point of 200 °C.

The compound `CCOc1ccc(C(=O)C2CC=CCC2C(=O)O)cc1Cl` (configuration not stated) showed a melting point of 123 to 125 °C.

As to `CCOC12CC(C)(C)C(O1)C(OC(=O)c1ccc([N+](=O)[O-])cc1)C=C2C` (configuration not stated), the melting point was 144 to 146 °C.

In the case of `O=C(c1ccc(F)cc1)C1(c2ccc(F)cc2)CCN(Cc2ccccc2)CC1`, the melting point fell in the range of 136 to 138 °C.

As for `CCCCOc1c(CO)n(CC2CC2)c(=O)c2ccc(Br)cc12`, the melting point is 111 to 112 °C.

For the compound `Cc1cc(OCc2ccc(-c3ccccc3-c3nnn(C(c4ccccc4)(c4ccccc4)c4ccccc4)n3)cc2)c(CO)c(C)n1`, the melting point was 68 to 70 °C.

Take `Nc1ccc(CC(NC(=O)CCCCCCCCCCNC(=O)C(c2ccccc2)c2ccccc2)c2ccccc2)cc1` (configuration not stated): the melting point was in the range of 96 to 102 °C.

`CC(=O)OCc1cc2c3ccccc3nc(=O)n2[nH]1` had a melting point of 186 to 187 °C.

Regarding `CC(C)CNc1c(N)c2nnnn2c2ccccc12`, the melting point is 148 to 150 °C.

For `CC(=O)c1sccc1CN1C(=O)C(NC(=O)Nc2cccc(C)c2)N=C(C2CCCCC2)c2ccccc21` (racemic), the melting point was 231 to 232 °C.

In the case of `COc1cc(C2COc3c(C)c(C)c(NC(=O)CC(C)(C)C)c(C)c32)ccc1C(C)=O` (configuration not stated), the melting point fell in the range of 131 to 133 °C.

In the case of `CCCCOc1cccc(Cn2[nH]c(N)cc2=O)c1`, the melting point was determined as 110 °C.

`CCN(CC)C(=O)n1ccc(S(=O)(=O)c2c(C)cc(Br)cc2C)n1` showed a melting point of 96 to 100 °C.

In turn, `O=c1[nH]c2c(I)c(Cl)c(Cl)c(I)c2[nH]c1=O` had a melting point of 353 to 354 °C.

`COc1ccc(-c2cc(-c3ccccc3F)c(C#N)c(C)n2)cc1` gave a melting point of 152 to 153 °C.

Consider `CCCCCCCCNC(=O)C1=C(C(=O)Nc2cc(OC3CCCC3)c(Cl)cc2F)CCCC1`, for which the melting point was in the range of 127 to 130 °C.

In turn, `Nc1nc(Nc2ccc(N3CCOCC3)cc2)sc1C(=O)c1c(Cl)cccc1Cl` returned a melting point of 245 to 247 °C.

Consider `CCCc1cc(NC(=O)C(=O)OCC)sc1C(=O)OCC`, for which the melting point lay within 93 to 94 °C.

On to `Brc1cncc(OCc2ccccc2)c1`, for which the melting point is 65 to 67 °C.

On to `CCCCCCCCOc1cnc(-c2ccc(C#CCCCC(C)OC(C)=O)cc2)nc1` (configuration not stated), for which the melting point lay within 58 to 59 °C.

As for `O=C(O)CCC(=O)c1ccc(-c2cccc(F)c2)cc1`, the melting point was 153 to 155 °C.

The compound `O=C(c1ccc(-n2ccnc2)cc1)N1CCN(S(=O)(=O)c2cc3cc(Cl)ccc3o2)CC1` returned a melting point of 175 to 177 °C.

Consider `COC(=O)c1ccc(C[C@@H]2COc3ccc(OCc4ccc5ccccc5n4)cc3[C@H]2O)cc1` (relative stereo), for which the melting point lay within 138 to 140 °C.

Take `CCN(CC)CCOc1ccc2c(c1)c(C(=O)OCc1ccccc1)c(C)n2C`: the melting point fell in the range of 73 to 74 °C.

`CNC(=O)C1=C(C(=O)Nc2cc(OC3CCCC3)c(Cl)cc2F)CCCC1`: the melting point was in the range of 179 to 180 °C.

`CCCCCCCCCCCCCCCCCCCCCCCCNc1ccc(C(=O)C(F)(F)F)cc1` yielded a melting point of 89 to 90 °C.

`Cc1occ(S(=O)(=O)NC(C)(C)C)c1C` had a melting point of 95 to 96 °C.
